Test results reported in PMC5315023 (Nature, 2016).

Test system: MEFs expressing Mfn1 or Mfn2 in any combination
Assay: Mitochondrial aspect ratio/morphology with adenovirally expressed minipeptides
Assay type: cell-based, mouse
Details: adenoviral expression, MOI of 100, MEFs

RQVSTAMAEEIRRLSVLVDDY [Adeno428-448]
Effect on mitochondrial fusion / morphology: did not affect mitochondrial fusion
